# Laboratory results reported in article PMC6409085, “Three odorant-binding proteins are involved in the behavioral response of Sogatella furcifera to rice plant volatiles” (PeerJ, 2019).
# pIC50: −log10 of the molar value. “And” between values parts separate entries of the source, which are not always exact repeats. Equal values may be shown once.
# Tests used:
# Assay in all cases: biochemical
# Assay type in all cases: binding
# SfurOBP1 = SfurOBP1 (Sogatella furcifera, UniProt V5T8N5); settings: for Fluorescence competitive binding assay, fluorescence intensity: OBP1, three replicate columns
# Procedure, shortened: (§1)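 In 50 mM Tris-HCl pH 7.4, odorants displace 1-NPN (2.0 µM) from 2.0 µM protein. Emission at 390–490 nm under 337 nm excitation is measured 2 min after competitor addition, in triplicate. Ki is obtained from IC50 and the 1-NPN dissociation constant.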
# SfurOBP11 = SfurOBP11 (Sogatella furcifera, UniProt V5T6E3)
# Procedure, shortened: as §1
# SfurOBP2 = SfurOBP2 (Sogatella furcifera, UniProt V5T759)
# Procedure, shortened: as §1
# SfurOBP3 = SfurOBP3 (Sogatella furcifera, UniProt V5T818); settings: for Fluorescence competitive binding assay, fluorescence intensity: OBP3, three replicate columns
# Procedure, shortened: as §1
# Chain of SfurOBP1 (V5T8N5 entry or part of it): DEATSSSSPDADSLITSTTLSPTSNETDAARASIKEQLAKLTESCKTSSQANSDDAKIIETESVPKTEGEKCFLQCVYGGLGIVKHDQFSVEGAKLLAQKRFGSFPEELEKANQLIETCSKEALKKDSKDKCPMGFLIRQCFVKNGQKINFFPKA
# Chain of SfurOBP2 (V5T759 entry or part of it): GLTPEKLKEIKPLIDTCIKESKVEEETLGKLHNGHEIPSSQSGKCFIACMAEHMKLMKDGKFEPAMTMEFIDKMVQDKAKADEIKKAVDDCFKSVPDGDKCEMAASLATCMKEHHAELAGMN
# Chain of SfurOBP3 (V5T818 entry or part of it): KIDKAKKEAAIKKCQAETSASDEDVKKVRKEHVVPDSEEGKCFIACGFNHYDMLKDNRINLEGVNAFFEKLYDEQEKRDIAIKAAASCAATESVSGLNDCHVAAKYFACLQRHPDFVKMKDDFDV
# Chain of SfurOBP11 (V5T6E3 entry or part of it): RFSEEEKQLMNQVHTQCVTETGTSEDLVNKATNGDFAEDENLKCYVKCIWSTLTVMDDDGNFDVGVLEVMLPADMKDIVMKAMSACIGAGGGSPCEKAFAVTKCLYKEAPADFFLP
smiles,measurement,setting,value
CCCCCCCCCCCCCCCCCC [n-octadecane],"Fluorescence competitive binding assay, fluorescence intensity",SfurOBP1; ligand concentration 2 (μM),9199 and 7453 and 7122
same,"Fluorescence competitive binding assay, fluorescence intensity",SfurOBP1; ligand concentration 4 (μM),8077 and 8108 and 9442
same,"Fluorescence competitive binding assay, fluorescence intensity",SfurOBP1; ligand concentration 6 (μM),8157 and 9511 and 12800
same,"Fluorescence competitive binding assay, fluorescence intensity",SfurOBP1; ligand concentration 8 (μM),8086 and 8235 and 10013
same,"Fluorescence competitive binding assay, fluorescence intensity",SfurOBP1; ligand concentration 10 (μM),9302 and 9657 and 9738
same,"Fluorescence competitive binding assay, fluorescence intensity",SfurOBP1; ligand concentration 12 (μM),8567 and 10513 and 8676
same,"Fluorescence competitive binding assay, fluorescence intensity",SfurOBP1; ligand concentration 14 (μM),10345 and 9766 and 9261
same,"Fluorescence competitive binding assay, fluorescence intensity",SfurOBP1; ligand concentration 16 (μM),9156 and 9816 and 8326
same,"Fluorescence competitive binding assay, fluorescence intensity",SfurOBP1; ligand concentration 18 (μM),11251 and 11486 and 11859
same,"Fluorescence competitive binding assay, fluorescence intensity",SfurOBP1; ligand concentration 20 (μM),12749 and 11193 and 9024
same,pIC50,"SfurOBP1; SfurOBP1, protein and 1-NPN both 2.0 µM, competitor 2-20 µM, read-out: IC50",< 4.70
same,pIC50,"SfurOBP11; SfurOBP11, protein and 1-NPN both 2.0 µM, competitor 2-20 µM, read-out: IC50",< 4.70
same,"Fluorescence intensity, fluorescence competitive binding assay, OBP11","SfurOBP11; ligand concentration 2, replicate 1",31124
same,"Fluorescence intensity, fluorescence competitive binding assay, OBP11","SfurOBP11; ligand concentration 2, replicate 2",31165
same,"Fluorescence intensity, fluorescence competitive binding assay, OBP11","SfurOBP11; ligand concentration 2, replicate 3",31082
same,"Fluorescence intensity, fluorescence competitive binding assay, OBP11","SfurOBP11; ligand concentration 4, replicate 1",31010
same,"Fluorescence intensity, fluorescence competitive binding assay, OBP11","SfurOBP11; ligand concentration 4, replicate 2",31130
same,"Fluorescence intensity, fluorescence competitive binding assay, OBP11","SfurOBP11; ligand concentration 4, replicate 3",30899
same,"Fluorescence intensity, fluorescence competitive binding assay, OBP11","SfurOBP11; ligand concentration 6, replicate 1",26414
same,"Fluorescence intensity, fluorescence competitive binding assay, OBP11","SfurOBP11; ligand concentration 6, replicate 2",32905
same,"Fluorescence intensity, fluorescence competitive binding assay, OBP11","SfurOBP11; ligand concentration 6, replicate 3",29894
same,"Fluorescence intensity, fluorescence competitive binding assay, OBP11","SfurOBP11; ligand concentration 8, replicate 1",27729
same,"Fluorescence intensity, fluorescence competitive binding assay, OBP11","SfurOBP11; ligand concentration 8, replicate 2",29971
same,"Fluorescence intensity, fluorescence competitive binding assay, OBP11","SfurOBP11; ligand concentration 8, replicate 3",31279
same,"Fluorescence intensity, fluorescence competitive binding assay, OBP11","SfurOBP11; ligand concentration 10, replicate 1",29221
same,"Fluorescence intensity, fluorescence competitive binding assay, OBP11","SfurOBP11; ligand concentration 10, replicate 2",29436
same,"Fluorescence intensity, fluorescence competitive binding assay, OBP11","SfurOBP11; ligand concentration 10, replicate 3",31039
same,"Fluorescence intensity, fluorescence competitive binding assay, OBP11","SfurOBP11; ligand concentration 12, replicate 1",26981
same,"Fluorescence intensity, fluorescence competitive binding assay, OBP11","SfurOBP11; ligand concentration 12, replicate 2",32241
same,"Fluorescence intensity, fluorescence competitive binding assay, OBP11","SfurOBP11; ligand concentration 12, replicate 3",28868
same,"Fluorescence intensity, fluorescence competitive binding assay, OBP11","SfurOBP11; ligand concentration 14, replicate 1",27521
same,"Fluorescence intensity, fluorescence competitive binding assay, OBP11","SfurOBP11; ligand concentration 14, replicate 2",30203
same,"Fluorescence intensity, fluorescence competitive binding assay, OBP11","SfurOBP11; ligand concentration 14, replicate 3",30415
same,"Fluorescence intensity, fluorescence competitive binding assay, OBP11","SfurOBP11; ligand concentration 16, replicate 1",28709
same,"Fluorescence intensity, fluorescence competitive binding assay, OBP11","SfurOBP11; ligand concentration 16, replicate 2",28254
same,"Fluorescence intensity, fluorescence competitive binding assay, OBP11","SfurOBP11; ligand concentration 16, replicate 3",29164
same,"Fluorescence intensity, fluorescence competitive binding assay, OBP11","SfurOBP11; ligand concentration 18, replicate 1",29699
same,"Fluorescence intensity, fluorescence competitive binding assay, OBP11","SfurOBP11; ligand concentration 18, replicate 2",28164
same,"Fluorescence intensity, fluorescence competitive binding assay, OBP11","SfurOBP11; ligand concentration 18, replicate 3",26628
same,"Fluorescence intensity, fluorescence competitive binding assay, OBP11","SfurOBP11; ligand concentration 20, replicate 1",26046
same,"Fluorescence intensity, fluorescence competitive binding assay, OBP11","SfurOBP11; ligand concentration 20, replicate 2",24149
same,"Fluorescence intensity, fluorescence competitive binding assay, OBP11","SfurOBP11; ligand concentration 20, replicate 3",23426
same,pIC50,"SfurOBP2; SfurOBP2, protein and 1-NPN both 2.0 µM, competitor 2-20 µM, read-out: IC50",< 4.70
same,"Fluorescence competitive binding assay, OBP2 (raw fluorescence reading)","SfurOBP2; ligand concentration 2 (unit not given), replicate column 1 of 3",22088
same,"Fluorescence competitive binding assay, OBP2 (raw fluorescence reading)","SfurOBP2; ligand concentration 2 (unit not given), replicate column 2 of 3",18683
same,"Fluorescence competitive binding assay, OBP2 (raw fluorescence reading)","SfurOBP2; ligand concentration 2 (unit not given), replicate column 3 of 3",19796
same,"Fluorescence competitive binding assay, OBP2 (raw fluorescence reading)","SfurOBP2; ligand concentration 4 (unit not given), replicate column 1 of 3",22227
same,"Fluorescence competitive binding assay, OBP2 (raw fluorescence reading)","SfurOBP2; ligand concentration 4 (unit not given), replicate column 2 of 3",21034
same,"Fluorescence competitive binding assay, OBP2 (raw fluorescence reading)","SfurOBP2; ligand concentration 4 (unit not given), replicate column 3 of 3",22529
same,"Fluorescence competitive binding assay, OBP2 (raw fluorescence reading)","SfurOBP2; ligand concentration 6 (unit not given), replicate column 1 of 3",22620
same,"Fluorescence competitive binding assay, OBP2 (raw fluorescence reading)","SfurOBP2; ligand concentration 6 (unit not given), replicate column 2 of 3",20809
same,"Fluorescence competitive binding assay, OBP2 (raw fluorescence reading)","SfurOBP2; ligand concentration 6 (unit not given), replicate column 3 of 3",24859
same,"Fluorescence competitive binding assay, OBP2 (raw fluorescence reading)","SfurOBP2; ligand concentration 8 (unit not given), replicate column 1 of 3",22235
same,"Fluorescence competitive binding assay, OBP2 (raw fluorescence reading)","SfurOBP2; ligand concentration 8 (unit not given), replicate column 2 of 3",21135
same,"Fluorescence competitive binding assay, OBP2 (raw fluorescence reading)","SfurOBP2; ligand concentration 8 (unit not given), replicate column 3 of 3",22654
same,"Fluorescence competitive binding assay, OBP2 (raw fluorescence reading)","SfurOBP2; ligand concentration 10 (unit not given), replicate column 1 of 3",23550
same,"Fluorescence competitive binding assay, OBP2 (raw fluorescence reading)","SfurOBP2; ligand concentration 10 (unit not given), replicate column 2 of 3",22474
same,"Fluorescence competitive binding assay, OBP2 (raw fluorescence reading)","SfurOBP2; ligand concentration 10 (unit not given), replicate column 3 of 3",20461
same,"Fluorescence competitive binding assay, OBP2 (raw fluorescence reading)","SfurOBP2; ligand concentration 12 (unit not given), replicate column 1 of 3",24276
same,"Fluorescence competitive binding assay, OBP2 (raw fluorescence reading)","SfurOBP2; ligand concentration 12 (unit not given), replicate column 2 of 3",21111
same,"Fluorescence competitive binding assay, OBP2 (raw fluorescence reading)","SfurOBP2; ligand concentration 12 (unit not given), replicate column 3 of 3",21373
same,"Fluorescence competitive binding assay, OBP2 (raw fluorescence reading)","SfurOBP2; ligand concentration 14 (unit not given), replicate column 1 of 3",23028
same,"Fluorescence competitive binding assay, OBP2 (raw fluorescence reading)","SfurOBP2; ligand concentration 14 (unit not given), replicate column 2 of 3",21327
same,"Fluorescence competitive binding assay, OBP2 (raw fluorescence reading)","SfurOBP2; ligand concentration 14 (unit not given), replicate column 3 of 3",21239
same,"Fluorescence competitive binding assay, OBP2 (raw fluorescence reading)","SfurOBP2; ligand concentration 16 (unit not given), replicate column 1 of 3",18660
same,"Fluorescence competitive binding assay, OBP2 (raw fluorescence reading)","SfurOBP2; ligand concentration 16 (unit not given), replicate column 2 of 3",19708
same,"Fluorescence competitive binding assay, OBP2 (raw fluorescence reading)","SfurOBP2; ligand concentration 16 (unit not given), replicate column 3 of 3",19350
same,"Fluorescence competitive binding assay, OBP2 (raw fluorescence reading)","SfurOBP2; ligand concentration 18 (unit not given), replicate column 1 of 3",24040
same,"Fluorescence competitive binding assay, OBP2 (raw fluorescence reading)","SfurOBP2; ligand concentration 18 (unit not given), replicate column 2 of 3",25474
same,"Fluorescence competitive binding assay, OBP2 (raw fluorescence reading)","SfurOBP2; ligand concentration 18 (unit not given), replicate column 3 of 3",26650
same,"Fluorescence competitive binding assay, OBP2 (raw fluorescence reading)","SfurOBP2; ligand concentration 20 (unit not given), replicate column 1 of 3",24631
same,"Fluorescence competitive binding assay, OBP2 (raw fluorescence reading)","SfurOBP2; ligand concentration 20 (unit not given), replicate column 2 of 3",21130
same,"Fluorescence competitive binding assay, OBP2 (raw fluorescence reading)","SfurOBP2; ligand concentration 20 (unit not given), replicate column 3 of 3",21384
same,"Fluorescence competitive binding assay, fluorescence intensity",SfurOBP3; ligand concentration 2,44756 and 46756 and 45756
same,"Fluorescence competitive binding assay, fluorescence intensity",SfurOBP3; ligand concentration 4,44765 and 44970 and 45189
same,"Fluorescence competitive binding assay, fluorescence intensity",SfurOBP3; ligand concentration 6,56655 and 51780 and 54218
same,"Fluorescence competitive binding assay, fluorescence intensity",SfurOBP3; ligand concentration 8,56206 and 55200 and 54212
same,"Fluorescence competitive binding assay, fluorescence intensity",SfurOBP3; ligand concentration 10,105189 and 108079 and 109909
same,"Fluorescence competitive binding assay, fluorescence intensity",SfurOBP3; ligand concentration 12,109051 and 110510 and 104814
same,"Fluorescence competitive binding assay, fluorescence intensity",SfurOBP3; ligand concentration 14,104242 and 103301 and 109995
same,"Fluorescence competitive binding assay, fluorescence intensity",SfurOBP3; ligand concentration 16,96286 and 114978 and 85581
same,"Fluorescence competitive binding assay, fluorescence intensity",SfurOBP3; ligand concentration 18,113407 and 123942 and 62401
same,"Fluorescence competitive binding assay, fluorescence intensity",SfurOBP3; ligand concentration 20,54560 and 56227 and 56504
same,pIC50,"SfurOBP3; SfurOBP3, protein and 1-NPN both 2.0 µM, competitor 2-20 µM, read-out: IC50",< 4.70
